Measured values published in ChEMBL document CHEMBL2401689, “Design, synthesis and antibacterial activity studies of thiazole derivatives as potent ecKAS III inhibitors” (Bioorg Med Chem Lett, 2013).
pIC50: −log10 of the molar value. Values after ≈ are worked out from the molar mass of the structure shown.

Key:
Escherichia coli = test: Antibacterial activity against Escherichia coli ATCC 35218 after 24 hrs by MTT assay; format: functional; conditions: ATCC 35218, 24 h
Staphylococcus aureus = test: Antibacterial activity against Staphylococcus aureus ATCC 6538 after 24 hrs by MTT assay; format: functional; conditions: ATCC 6538, 24 h
Pseudomonas aeruginosa = test: Antibacterial activity against Pseudomonas aeruginosa ATCC 13525 after 24 hrs by MTT assay; format: functional; conditions: ATCC 13525, 24 h
Bacillus spizizenii = test: Antibacterial activity against Bacillus subtilis ATCC 6633 after 24 hrs by MTT assay; format: functional; conditions: ATCC 6633, 24 h
[1] = Hemolytic activity in RBC (uinknown origin); format: cell-based; conditions: erythrocyte
[2] = Displacement of [3H]acetyl-CoA from Escherichia coli full-length beta-ketoacyl-ACP synthase3 expressed in Escherichia coli BL21 (DE3) by liquid scintillation counting analysis

SMILES	MIC (Escherichia coli) [µg/mL]	MIC (Staphylococcus aureus) [µg/mL]	MIC (Pseudomonas aeruginosa) [µg/mL]	MIC (Bacillus spizizenii) [µg/mL]	LC30 [1] [mg/mL]	pIC50 [2]
O=C(Cc1ccc(Br)cc1)Nc1nc(-c2ccc(Br)cc2)cs1	25 (≈ 55.3 µM)	25 (≈ 55.3 µM)	50 (≈ 111 µM)	25 (≈ 55.3 µM)	> 10	4.32
CCOc1ccc(CC(=O)Nc2nc(-c3ccc(Br)cc3)cs2)cc1OCC	50 (≈ 108 µM)	> 100	25 (≈ 54.2 µM)	50 (≈ 108 µM)	–	–
O=C(Nc1nc(-c2ccc(Br)cc2)cs1)c1ccccc1	> 100	> 100	> 100	> 100	–	–
O=C(Nc1nc(-c2ccc(Br)cc2)cs1)c1cccc2ccccc12	50 (≈ 122 µM)	> 100	100 (≈ 244 µM)	> 100	–	–
O=C(Cc1ccccc1)Nc1nc(-c2ccc(Br)cc2)cs1	50 (≈ 134 µM)	25 (≈ 67 µM)	50 (≈ 134 µM)	25 (≈ 67 µM)	–	–
O=C(Nc1nc(-c2ccccc2)cs1)c1ccc2ccccc2c1	> 100	> 100	> 100	50 (≈ 151 µM)	–	–
O=C(Nc1nc(-c2ccccc2)cs1)c1ccccc1	> 100	> 100	> 100	> 100	–	–
O=C(Cc1ccc(F)cc1)Nc1nc(-c2ccccc2)cs1	12.5 (≈ 40 µM)	12.5 (≈ 40 µM)	25 (≈ 80 µM)	12.5 (≈ 40 µM)	> 10	4.42
O=C(Cc1ccccc1)Nc1nc(-c2ccccc2)cs1	100 (≈ 340 µM)	25 (≈ 84.9 µM)	100 (≈ 340 µM)	50 (≈ 170 µM)	–	–
CC1(C)S[C@@H]2[C@H](NC(=O)Cc3ccccc3)C(=O)N2[C@H]1C(=O)O [PENICILLIN G]	3.13 (≈ 9.36 µM)	6.25 (≈ 18.7 µM)	6.25 (≈ 18.7 µM)	1.56 (≈ 4.67 µM)	–	–
O=C(Cc1ccc(F)cc1)Nc1nc(-c2ccc(Br)cc2)cs1	12.5 (≈ 31.9 µM)	12.5 (≈ 31.9 µM)	12.5 (≈ 31.9 µM)	6.25 (≈ 16 µM)	> 10	4.53
COc1cccc(CC(=O)Nc2nc(-c3ccccc3)cs2)c1	50 (≈ 154 µM)	50 (≈ 154 µM)	50 (≈ 154 µM)	100 (≈ 308 µM)	–	–
O=C(Cc1ccc(Br)cc1)Nc1nc(-c2ccccc2)cs1	50 (≈ 134 µM)	50 (≈ 134 µM)	50 (≈ 134 µM)	25 (≈ 67 µM)	–	–
O=C(Cc1cccc(Cl)c1)Nc1nc(-c2ccccc2)cs1	6.25 (≈ 19 µM)	6.25 (≈ 19 µM)	6.25 (≈ 19 µM)	12.5 (≈ 38 µM)	> 10	4.91
O=C(Nc1nc(-c2ccc(Br)cc2)cs1)c1ccc2ccccc2c1	> 100	> 100	> 100	> 100	–	–
O=C(Cc1cccc(Cl)c1)Nc1nc(-c2ccc(Br)cc2)cs1	1.56 (≈ 3.83 µM)	3.13 (≈ 7.68 µM)	3.13 (≈ 7.68 µM)	6.25 (≈ 15.3 µM)	> 10	5.28
CCOc1ccc(CC(=O)Nc2nc(-c3ccccc3)cs2)cc1OCC	50 (≈ 131 µM)	> 100	50 (≈ 131 µM)	> 100	–	–
O=C(Cc1ccc(Cl)cc1)Nc1nc(-c2ccc(Br)cc2)cs1	12.5 (≈ 30.7 µM)	12.5 (≈ 30.7 µM)	25 (≈ 61.3 µM)	12.5 (≈ 30.7 µM)	> 10	4.46
O=C(Nc1nc(-c2ccccc2)cs1)c1cccc2ccccc12	> 100	> 100	> 100	> 100	–	–
O=C(Cc1cccc(Br)c1)Nc1nc(-c2ccccc2)cs1	12.5 (≈ 33.5 µM)	3.13 (≈ 8.39 µM)	12.5 (≈ 33.5 µM)	6.25 (≈ 16.7 µM)	> 10	4.57
O=C(Nc1nc(-c2ccc(Br)cc2)cs1)N1CCOCC1	50 (≈ 136 µM)	> 100	> 100	100 (≈ 272 µM)	–	–
NC[C@H]1O[C@H](O[C@H]2[C@H](O)[C@@H](O[C@H]3O[C@H](CO)[C@@H](O)[C@H](N)[C@H]3O)[C@H](N)C[C@@H]2N)[C@H](N)[C@@H](O)[C@@H]1O [BEKANAMYCIN]	1.56 (≈ 3.23 µM)	3.13 (≈ 6.47 µM)	3.13 (≈ 6.47 µM)	0.39 (≈ 0.807 µM)	–	–
COc1cccc(CC(=O)Nc2nc(-c3ccc(Br)cc3)cs2)c1	25 (≈ 62 µM)	50 (≈ 124 µM)	50 (≈ 124 µM)	25 (≈ 62 µM)	> 10	4.18
O=C(Cc1cccc(Br)c1)Nc1nc(-c2ccc(Br)cc2)cs1	6.25 (≈ 13.8 µM)	6.25 (≈ 13.8 µM)	12.5 (≈ 27.6 µM)	6.25 (≈ 13.8 µM)	> 10	5.01
O=C(Nc1nc(-c2ccccc2)cs1)N1CCOCC1	> 100	> 100	> 100	> 100	–	–
O=C(Cc1ccc(Cl)cc1)Nc1nc(-c2ccccc2)cs1	25 (≈ 76 µM)	25 (≈ 76 µM)	25 (≈ 76 µM)	12.5 (≈ 38 µM)	> 10	4.38
